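96-well plates; 48 h exposure; 5 concentrations. Endpoints by linear interpolation between flanking doses. Not reached: highest tested concentration assigned. The concentration for 50% growth inhibition is given as GI50.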 Active and inactive are the calls of the source. Rule as the data show it: active = GI50 up to about 1.1 µM and inactive = higher.
Legend:
Experiment in all cases: growth of human tumour cells (NCI), 48 h
Hs-578T = system: Hs-578T
UACC-257 = system: UACC-257
OVCAR-8 = system: OVCAR-8
EKVX = system: EKVX
NCI-H522 = system: NCI-H522
Malme-3M = system: Malme-3M
HCT-15 = system: HCT-15
MDA-MB-435 = system: MDA-MB-435
SNB-19 = system: SNB-19
MDA-MB-231 = system: MDA-MB-231
HCC 2998 = system: HCC 2998
SW-620 = system: SW-620
COLO 205 = system: COLO 205
SK-MEL-28 = system: SK-MEL-28
NCI/ADR-RES = system: NCI/ADR-RES
HT-29 = system: HT-29
OVCAR-3 = system: OVCAR-3

Compound	GI50 (Hs-578T)	GI50 (UACC-257)	GI50 (OVCAR-8)	GI50 (EKVX)	GI50 (NCI-H522)	GI50 (Malme-3M)	GI50 (HCT-15)	GI50 (MDA-MB-435)	GI50 (SNB-19)	GI50 (MDA-MB-231)	GI50 (HCC 2998)	GI50 (SW-620)	GI50 (COLO 205)	GI50 (SK-MEL-28)	GI50 (NCI/ADR-RES)	GI50 (HT-29)	GI50 (OVCAR-3)
CC(=O)NC1C(OCc2ccccc2)OC(CO)C(O)C1OCC(=O)NC(C)C(=O)NC(CCC(=O)NCCCCCNc1c2ccccc2nc2cccc([N+](=O)[O-])c12)C(N)=O (configuration not stated)	< 0.01 µM (active)	< 0.0001 µM (active)	< 0.0001 µM (active)	0.00197 µM (active)	< 0.0001 µM (active)	< 0.0001 µM (active)	< 0.0001 µM	< 0.0001 µM (active)	< 0.0001 µM (active)	< 0.0001 µM (active)	< 0.0001 µM (active)	< 0.0001 µM (active)	< 0.0001 µM (active)	< 0.0001 µM (active)	0.000327 µM (active)	< 0.0001 µM (active)	< 0.01 µM (active)
NC(=O)N/N=C1\CC2C3CC4C2C4C13 (configuration not stated)	> 100 µM (inactive)	> 100 µM (inactive)	> 100 µM (inactive)	> 100 µM (inactive)	> 100 µM (inactive)	> 100 µM (inactive)	> 100 µM	> 100 µM (inactive)	> 100 µM (inactive)	> 100 µM (inactive)	> 100 µM (inactive)	> 100 µM (inactive)	> 100 µM (inactive)	> 100 µM (inactive)	> 100 µM (inactive)	> 100 µM (inactive)	> 100 µM (inactive)
C=C(NC(=O)C(=C)NC(=O)c1csc(C2=NC3c4csc(n4)C4NC(=O)c5csc(n5)C(C(C)(O)C(C)O)NC(=O)C5CSC(=N5)/C(=C/C)NC(=O)C(C(C)O)NC(=O)c5csc(n5)C3(CC2)NC(=O)C(C)NC(=O)C(=C)NC(=O)C(=C)NC(=O)C(C(C)C)NC2C=Cc3c(C(C)O)cc(nc3C2O)C(=O)OC4C)n1)C(N)=O (configuration not stated)	12.3 µM (inactive)	2.91 µM (inactive)	0.935 µM (active)	3.92 µM (inactive)	0.158 µM (active)	0.239 µM (active)	9.25 µM	0.743 µM (active)	33 µM (inactive)	0.815 µM (active)	16.1 µM (inactive)	0.673 µM (active)	0.468 µM (active)	1.38 µM (inactive)	> 42.2 µM (inactive)	1.32 µM (inactive)	10.3 µM (inactive)
O=c1n(-c2ccccc2)c(=O)n2n1C1C=CC2CCCCCC1	36.1 µM (inactive)	> 100 µM (inactive)	> 100 µM (inactive)	> 100 µM (inactive)	22.8 µM (inactive)	> 100 µM (inactive)	> 100 µM	> 100 µM (inactive)	> 100 µM (inactive)	> 100 µM (inactive)	> 100 µM (inactive)	> 100 µM (inactive)	> 100 µM (inactive)	> 100 µM (inactive)	> 100 µM (inactive)	> 100 µM (inactive)	4.99 µM (inactive)
Cc1ccc2c(c1C)CC1(Cc3c(ccc4c3CCC4)C1=O)C2=O (configuration not stated)	> 100 µM (inactive)	> 100 µM (inactive)	> 100 µM (inactive)	> 100 µM (inactive)	> 100 µM (inactive)	> 100 µM (inactive)	> 100 µM	46.3 µM (inactive)	> 100 µM (inactive)	> 100 µM (inactive)	> 100 µM (inactive)	> 100 µM (inactive)	> 100 µM (inactive)	> 100 µM (inactive)	> 100 µM (inactive)	> 100 µM (inactive)	65.9 µM (inactive)
O=C(c1cccc(OCc2ccccc2)c1OCc1ccccc1)N1CCSC1=S	2.29 µM (inactive)	28.5 µM (inactive)	21.8 µM (inactive)	37.8 µM (inactive)	12.3 µM (inactive)	23.6 µM (inactive)	23.2 µM	27.2 µM (inactive)	> 46.6 µM (inactive)	19.8 µM (inactive)	28 µM (inactive)	43.4 µM (inactive)	12 µM (inactive)	48.5 µM (inactive)	10.6 µM (inactive)	25.2 µM (inactive)	21.1 µM (inactive)
COc1ccc(/N=C2/SC(=N/N=c3\sc4ccccc4n3C)S/C2=N/c2ccc(OC)cc2)cc1	36.2 µM (inactive)	> 100 µM (inactive)	> 100 µM (inactive)	> 100 µM (inactive)	70.8 µM (inactive)	> 100 µM (inactive)	> 100 µM	> 100 µM (inactive)	> 100 µM (inactive)	2.97 µM (inactive)	> 100 µM (inactive)	> 100 µM (inactive)	> 100 µM (inactive)	> 100 µM (inactive)	> 100 µM (inactive)	> 100 µM (inactive)	> 100 µM (inactive)
N#CC1(C#N)C2=C(CCCC2)NC(c2ccc(Br)cc2)C1(C#N)C#N (configuration not stated)	17.1 µM (inactive)	4.22 µM (inactive)	2.7 µM (inactive)	12.4 µM (inactive)	0.927 µM (active)	1.16 µM (inactive)	2.42 µM	3.68 µM (inactive)	16.5 µM (inactive)	11.5 µM (inactive)	20.5 µM (inactive)	1.31 µM (inactive)	1.24 µM (inactive)	12.6 µM (inactive)	17.2 µM (inactive)	2.55 µM (inactive)	6.56 µM (inactive)
COc1ccc([C@H]2CC(=O)C[C@H](c3ccc(OC)cc3OC)C23C(=O)c2ccccc2C3=O)c(OC)c1	> 100 µM (inactive)	> 100 µM (inactive)	99.5 µM (inactive)	> 100 µM (inactive)	> 100 µM (inactive)	> 100 µM (inactive)	> 100 µM	> 100 µM (inactive)	> 100 µM (inactive)	> 100 µM (inactive)	> 100 µM (inactive)	> 100 µM (inactive)	> 100 µM (inactive)	> 100 µM (inactive)	> 100 µM (inactive)	> 100 µM (inactive)	> 100 µM (inactive)
Cc1cccc(C2NC(=O)c3ccccc3N2)c1 (configuration not stated)	8.43 µM (inactive)	> 31.3 µM (inactive)	6.1 µM (inactive)	7.76 µM (inactive)	3.69 µM (inactive)	17.7 µM (inactive)	2.85 µM	0.399 µM (active)	11 µM (inactive)	25.8 µM (inactive)	6.64 µM (inactive)	5.62 µM (inactive)	4.19 µM (inactive)	> 28.7 µM (inactive)	4.67 µM (inactive)	2.75 µM (inactive)	3.22 µM (inactive)
CN(CC(=O)N1CC(CCl)c2ccc([N+](=O)[O-])cc21)CC(=O)N1CC(CCl)c2ccc([N+](=O)[O-])cc21 (configuration not stated)	> 100 µM (inactive)	> 100 µM (inactive)	> 100 µM (inactive)	> 100 µM (inactive)	7.73 µM (inactive)	> 100 µM (inactive)	> 100 µM	83.9 µM (inactive)	> 100 µM (inactive)	> 100 µM (inactive)	> 100 µM (inactive)	> 100 µM (inactive)	> 100 µM (inactive)	> 100 µM (inactive)	> 100 µM (inactive)	> 100 µM (inactive)	74.1 µM (inactive)
CCCCCCCCCCCCCCCCCCNc1ccn(C2OC(COP(=O)(O)OCC3OC(n4cc(C)c(=O)[nH]c4=O)CC3O)C(O)C2O)c(=O)n1 (configuration not stated)	19.4 µM (inactive)	18.1 µM (inactive)	17.8 µM (inactive)	19.4 µM (inactive)	15.8 µM (inactive)	16.6 µM (inactive)	16.1 µM	16.9 µM (inactive)	15.4 µM (inactive)	14.6 µM (inactive)	16.7 µM (inactive)	15.2 µM (inactive)	14.9 µM (inactive)	17.5 µM (inactive)	15.8 µM (inactive)	16.7 µM (inactive)	19 µM (inactive)
Nc1nc(Cl)c2ncn(Cc3ccc(CCl)cc3)c2n1	29.2 µM (inactive)	12.5 µM (inactive)	5.13 µM (inactive)	2.58 µM (inactive)	10.7 µM (inactive)	11.3 µM (inactive)	4.95 µM	16.6 µM (inactive)	6.78 µM (inactive)	13.1 µM (inactive)	0.497 µM (active)	3.37 µM (inactive)	3.64 µM (inactive)	18 µM (inactive)	3.33 µM (inactive)	9.73 µM (inactive)	2.16 µM (inactive)
OC(c1nc2ccccc2s1)(C(F)(F)F)C(F)(F)F	> 100 µM (inactive)	> 100 µM (inactive)	> 100 µM (inactive)	> 100 µM (inactive)	> 100 µM (inactive)	> 100 µM (inactive)	> 100 µM	> 100 µM (inactive)	> 100 µM (inactive)	> 100 µM (inactive)	> 100 µM (inactive)	> 100 µM (inactive)	> 100 µM (inactive)	> 100 µM (inactive)	> 100 µM (inactive)	> 100 µM (inactive)	> 100 µM (inactive)
CS(=O)(=O)c1nc(-c2cc3c(c(S(C)(=O)=O)n2)CCC3)cc2c1CCCCC2	9.08 µM (inactive)	> 100 µM (inactive)	66.5 µM (inactive)	> 100 µM (inactive)	15.2 µM (inactive)	34.5 µM (inactive)	> 100 µM	> 100 µM (inactive)	34.4 µM (inactive)	54.7 µM (inactive)	> 100 µM (inactive)	> 100 µM (inactive)	> 100 µM (inactive)	> 100 µM (inactive)	49.5 µM (inactive)	> 100 µM (inactive)	> 100 µM (inactive)
O=C1/C(=C/c2cccc([N+](=O)[O-])c2)CCCc2ccccc21	3.94 µM (inactive)	16.6 µM (inactive)	12.7 µM (inactive)	16 µM (inactive)	4.74 µM (inactive)	10.3 µM (inactive)	10.6 µM	9.66 µM (inactive)	15.2 µM (inactive)	17 µM (inactive)	10.3 µM (inactive)	4.76 µM (inactive)	18.8 µM (inactive)	15.3 µM (inactive)	9.51 µM (inactive)	9.84 µM (inactive)	13.6 µM (inactive)

Source: ChEMBL document CHEMBL1201862, “PubChem BioAssay data set” (2004)
